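All cell lines were grown in 96-well plates and treated with compound for 48 hours. The concentration for full growth arrest is given as TGI.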
Tests used:
Assay in all cases: NCI anticancer screen, dose series, 48 h
[1] = tested on: SNB-19 CNS
[2] = tested on: SK-MEL-5 melanoma
[3] = tested on: A498 renal
[4] = tested on: DU-145 prostate
[5] = tested on: OVCAR-8 ovarian
[6] = tested on: SK-OV-3 ovarian
[7] = tested on: SK-MEL-2 melanoma
[8] = tested on: HCC-2998 colon
[9] = tested on: U251 CNS
[10] = tested on: K-562 leukemia
[11] = tested on: ACHN renal
[12] = tested on: OVCAR-5 ovarian
[13] = tested on: T-47D breast
[14] = tested on: HS 578T breast
[15] = tested on: COLO 205 colon
[16] = tested on: HCT-116 colon
[17] = tested on: LOX IMVI melanoma
[18] = tested on: NCI-H522 lung
[19] = tested on: UO-31 renal
[20] = tested on: SNB-75 CNS
[21] = tested on: NCI-H226 lung
[22] = tested on: SF-295 CNS
[23] = tested on: SN12C renal
[24] = tested on: OVCAR-4 ovarian
[25] = tested on: KM12 colon
[26] = tested on: 786-0 renal
[27] = tested on: NCI-H460 lung
[28] = tested on: SF-268 CNS
[29] = tested on: HOP-92 NSCLC
[30] = tested on: A549 NSCLC
[31] = tested on: M14 melanoma
[32] = tested on: RXF 393 renal
[33] = tested on: UACC-62 melanoma
[34] = tested on: PC-3 prostate
[35] = tested on: SR leukemia
[36] = tested on: NCI-H23 lung
[37] = tested on: SK-MEL-28 melanoma
[38] = tested on: HL-60(TB) leukemia
[39] = tested on: CAKI-1 renal
[40] = tested on: SF-539 CNS
[41] = tested on: BT-549 breast
[42] = tested on: UACC-257 melanoma
[43] = tested on: OVCAR-3 ovarian
[44] = tested on: HOP-62 NSCLC
[45] = tested on: IGROV1 ovarian
[46] = tested on: RPMI-8226 leukemia
[47] = tested on: MDA-MB-435
[48] = tested on: NCI/ADR-RES ovarian
[49] = tested on: SW-620 colon
[50] = tested on: MDA-N
[51] = tested on: MALME-3M melanoma
[52] = tested on: EKVX NSCLC
[53] = tested on: HCT-15 colon
[54] = tested on: MDA-MB-231 breast
[55] = tested on: TK-10 renal
[56] = tested on: MCF7 breast
[57] = tested on: MOLT-4 leukemia
[58] = tested on: HT29 colon
[59] = tested on: CCRF-CEM leukemia

O=P1(C(O)/C=C/c2ccccc2)N(Cc2ccccc2)[C@H](c2ccccc2)[C@@H](c2ccccc2)N1Cc1ccccc1 (some centres undefined)
TGI [1]: > 100 µM
TGI [2]: 41.2 µM
TGI [3]: > 100 µM
TGI [4]: > 100 µM
TGI [5]: > 55.1 µM
TGI [6]: > 81.8 µM
TGI [7]: 41.5 µM
TGI [8]: > 100 µM
TGI [9]: > 100 µM
TGI [10]: > 80.6 µM
TGI [11]: > 95.4 µM
TGI [12]: > 100 µM
TGI [13]: > 100 µM
TGI [14]: > 90.2 µM
TGI [15]: 31.8 µM
TGI [16]: > 100 µM
TGI [17]: > 72.5 µM
TGI [18]: 59.2 µM
TGI [19]: 98.3 µM
TGI [20]: > 83.6 µM
TGI [21]: > 100 µM
TGI [22]: > 64.4 µM
TGI [23]: > 100 µM
TGI [24]: > 100 µM
TGI [25]: > 100 µM
TGI [26]: > 100 µM
TGI [27]: > 79.1 µM
TGI [28]: > 100 µM
TGI [29]: > 68.9 µM
TGI [30]: > 100 µM
TGI [31]: > 100 µM
TGI [32]: > 100 µM
TGI [33]: > 100 µM
TGI [34]: > 94.7 µM
TGI [35]: 70.7 µM
TGI [36]: > 59.2 µM
TGI [37]: > 100 µM
TGI [38]: 36.3 µM
TGI [39]: 99.7 µM
TGI [40]: > 100 µM
TGI [41]: > 89.4 µM
TGI [42]: 57.6 µM
TGI [43]: > 93.1 µM
TGI [44]: > 93.3 µM
TGI [45]: > 44.6 µM
TGI [46]: 30.1 µM
TGI [47]: > 93.3 µM
TGI [48]: > 100 µM
TGI [49]: > 100 µM
TGI [50]: > 100 µM
TGI [51]: 99.7 µM
TGI [52]: > 96.1 µM
TGI [53]: > 85.3 µM
TGI [54]: 69.7 µM
TGI [55]: > 100 µM
TGI [56]: > 100 µM
TGI [57]: > 100 µM
TGI [58]: > 86.3 µM
TGI [59]: > 92.6 µM

From PubChem BioAssay (NCI)
